# According to ChEMBL document CHEMBL3862012, “Methylene versus carbonyl bridge in the structure of new tubulin polymerization inhibitors with tricyclic A-rings” (Bioorg Med Chem, 2016):
# Assays:
# Ovis aries = species: Ovis aries; assay: Inhibition of sheep brain tubulin polymerization at 100 uM by DAPI staining-based fluorimetric method relative to control
# [1] = Cytotoxicity against human A498 cells assessed as growth inhibition after 48 hrs by SRB assay; type: functional; details: A498, 48 h
# [2] = Cytotoxicity against human SF295 cells assessed as growth inhibition after 48 hrs by SRB assay; type: functional; details: SF-295, 48 h
# [3] = Cytotoxicity against human DU145 cells assessed as growth inhibition after 48 hrs by SRB assay; type: functional; details: DU-145, 48 h
# [4] = Cytotoxicity against human NCI-H460 cells assessed as growth inhibition after 48 hrs by SRB assay; type: functional; details: NCI-H460, 48 h
# [5] = Inhibition of sheep brain tubulin polymerization by DAPI staining-based fluorimetric method; set-up: species or system Ovis aries
# [6] = Cytotoxicity against human OVCAR3 cells assessed as growth inhibition after 48 hrs by SRB assay; type: functional; details: OVCAR-3, 48 h
# [7] = Cytotoxicity against human HCT116 cells assessed as growth inhibition after 48 hrs by SRB assay; type: functional; details: HCT-116, 48 h
# [8] = Cytotoxicity against human K562 cells assessed as growth inhibition after 48 hrs by SRB assay; type: functional; details: K562, 48 h
# [9] = Cytotoxicity against human MDA-MB-435 cells assessed as growth inhibition after 48 hrs by SRB assay; type: functional; details: MDA-MB-435, 48 h
compound,measurement,setting,value
COc1ccc(CN2c3ccccc3Oc3ccccc32)c(C(F)(F)F)c1,inhibition,Ovis aries,44%
COc1ccc(C(=O)c2cc(OC)c(OC)c(OC)c2)cc1O [PHENSTATIN],inhibition,Ovis aries,99%
same,GI50,[1],1.19 µM
same,GI50,[2],0.163 µM
same,GI50,[3],0.034 µM
same,GI50,[4],0.018 µM
same,IC50,[5],3.4 µM
same,GI50,[6],0.007 µM
COc1ccc(C(=O)N2c3ccccc3Sc3ccccc32)c(C(F)(F)F)c1,inhibition,Ovis aries,80%
same,IC50,[5],11.9 µM
COc1cc([C@@H]2c3cc4c(cc3C[C@H]3COC(=O)[C@@H]32)OCO4)cc(OC)c1OC [DESOXYPODOPHYLLOTOXIN],inhibition,Ovis aries,100%
same,IC50,[5],2 µM
COc1ccc(Cn2c3ccccc3c(=O)c3ccccc32)cc1F,inhibition,Ovis aries,13%
COc1ccc(CN2c3ccccc3Sc3cccnc32)cc1F,inhibition,Ovis aries,72%
same,IC50,[5],10.5 µM
COc1ccc(/C=C\c2cc(OC)c(OC)c(OC)c2)cc1O [COMBRETASTATIN A4],GI50,[7],0.002 µM
same,GI50,[8],0.004 µM
same,GI50,[9],0.003 µM
